Each molecule was assayed against TG2 (Homo sapiens (Human), UniProt P21980) (assay: Transglutaminase (TG) Inhibitor Assay). Conditions: fluorescence of dansyl cadaverine cross-linked into N,N-dimethylated casein; 8 point titration.
Type: biochemical
Experimental: Using the fluorescent amine donor, dansyl cadaverine (DSC), and the multiple glutamine bearing amine acceptor N,N-dimethylated casein (NMC), TG activity was measured via the change in fluorescence of cross-linked DSC into NMC over time.

Chain of TG2 (P21980 whole entry): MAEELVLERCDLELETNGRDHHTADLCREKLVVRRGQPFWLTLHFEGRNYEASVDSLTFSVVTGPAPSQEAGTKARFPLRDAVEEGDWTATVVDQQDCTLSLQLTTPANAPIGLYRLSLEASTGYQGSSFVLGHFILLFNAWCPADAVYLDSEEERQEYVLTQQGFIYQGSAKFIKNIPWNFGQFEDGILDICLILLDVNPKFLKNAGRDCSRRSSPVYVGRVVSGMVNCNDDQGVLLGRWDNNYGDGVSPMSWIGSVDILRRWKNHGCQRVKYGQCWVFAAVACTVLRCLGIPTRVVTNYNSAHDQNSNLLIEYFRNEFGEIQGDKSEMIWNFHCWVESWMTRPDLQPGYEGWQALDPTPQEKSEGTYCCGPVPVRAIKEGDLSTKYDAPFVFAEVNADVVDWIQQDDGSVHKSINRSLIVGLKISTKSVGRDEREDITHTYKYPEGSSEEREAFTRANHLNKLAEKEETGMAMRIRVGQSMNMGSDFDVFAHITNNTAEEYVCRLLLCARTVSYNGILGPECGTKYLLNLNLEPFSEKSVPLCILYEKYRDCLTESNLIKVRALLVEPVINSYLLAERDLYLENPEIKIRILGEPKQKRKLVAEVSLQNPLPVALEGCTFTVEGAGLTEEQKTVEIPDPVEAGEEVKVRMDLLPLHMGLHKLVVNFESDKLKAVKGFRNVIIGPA

| SMILES | IC50 |
| --- | --- |
| CN(C)C(=O)/C=C/CC[C@H](NC(=O)OC(C)(C)C)C(=O)Nc1cccn(Cc2nc3cccc(C(O)C(C)(C)C)c3[nH]2)c1=O (stereo partly drawn) [Compound 160, tert-butyl ((2S,E)-7-(dimethylamino)-1-((1-((7-(1-hydroxy-2,2-dimethylpropyl)-1H-benzo[d]imidazol-2-yl)methyl)-2-oxo-1,2-dihydropyridin-3-yl)amino)-1,7-dioxohept-5-en-2-yl)carbamate] | < 0.5 µM |
| COCc1ccc(NC(=O)[C@H](CC/C=C/C(=O)N(C)C)NC(=O)OC)c(=O)n1Cc1nc2c(F)cnc(CC(C)C)c2[nH]1 [Compound 599] | < 0.5 µM |
| COC(=O)N[C@@H](CC/C=C/C(=O)N(C)C)C(=O)Nc1cccn(Cc2nc3c(CC(C(F)(F)F)C(F)(F)F)cccc3n2C(=O)OC(C)(C)C)c1=O [Compound 148, (S,E)-tert-butyl 2-((3-(7-(dimethylamino)-2-((methoxycarbonyl)amino)-7-oxohept-5-enamido)-2-oxopyridin-1(2H)-yl)methyl)-4-(3,3,3-trifluoro-2-(trifluoromethyl)propyl)-1H-benzo[d]imidazole-1-carboxylate] | 0.5 to 5 µM |
| [2H]C([2H])(C/C=C/C(=O)N(C)C)C(OC(=O)N(C)C)C(=O)Nc1cccn(Cc2cc3cc(F)cc(CC(C)C)c3n2C(=O)OC(C)(C)C)c1=O (stereo not drawn) [Compound 307] | 0.5 to 5 µM |
| [2H]C([2H])(C/C=C/C(=O)N(C)C)C(OC(=O)N(C)C)C(=O)Nc1cccn(Cc2cc3cc(F)cc(CC(C)C)c3[nH]2)c1=O (stereo not drawn) [Compound 308] | < 0.5 µM |
| COC(=O)N[C@@H](CC/C=C/C(=O)N(C)C)C(=O)Nc1cccn(Cc2cc3ncnc(CC(C)C)c3[nH]2)c1=O [Compound 459, methyl N-[(E,1S)-6-(dimethylamino)-1-[[1-[(4-isobutyl-5H-pyrrolo[3,2-d]pyrimidin-6-yl)methyl]-2-oxo-3-pyridyl]carbamoyl]-6-oxo-hex-4-enyl]carbamate] | < 0.5 µM |
| COC(=O)N(C)[C@@H](CC/C=C/C(=O)N(C)C)C(=O)Nc1cccn(Cc2nc3cccc(OCc4ccc(F)cc4F)c3[nH]2)c1=O [Compound 115, methyl (S,E)-methyl(1-((1-((7-((2,4-difluorobenzyl)oxy)-1H-benzo[d]imidazol-2-yl)methyl)-2-oxo-1,2-dihydropyridin-3-yl)amino)-7-(dimethylamino)-1,7-dioxohept-5-en-2-yl)carbamate] | < 0.5 µM |
| COC(=O)N[C@@H](CC/C=C/C(=O)N(C)C)C(=O)Nc1cccn(Cc2nc3c(N(C)C)nc(C)nc3[nH]2)c1=O [Compound 504] | 0.5 to 5 µM |
| [2H]C([2H])(C/C=C/C(=O)N(C)C)C(OC(=O)N(C)C)C(=O)Nc1cccn(Cc2cc3cc(F)ccc3n2C(=O)OC(C)(C)C)c1=O (stereo not drawn) [Compound 224] | < 0.5 µM |
| CC(C)Cc1cccc2c1nc(Cn1cccc(NC(=O)[C@H](CC/C=C/C(N)=O)NC(=O)OCc3ccccc3)c1=O)n2C(=O)OC(C)(C)C [Compound 3] | < 0.5 µM |
| COC(=O)N[C@@H](CC/C=C/C(=O)N(C)C)C(=O)Nc1cncn(Cc2nc3c(CCC(F)(F)F)cc(F)cc3n2C(=O)OC(C)(C)C)c1=O [Compound 102, tert-butyl 2-[[5-[[(E,2S)-7-(dimethylamino)-2-(methoxycarbonylamino)-7-oxo-hept-5-enoyl]amino]-6-oxo-pyrimidin-1-yl]methyl]-6-fluoro-4-(3,3,3-trifluoropropyl)benzimidazole-1-carboxylate] | < 0.5 µM |
| CC(C)Cn1c(Cn2ccnc(NC(=O)[C@H](CC/C=C/C(=O)N(C)C)OC(=O)N(C)C)c2=O)cc2cc(F)ccc21 [Compound 344, [(E,1S)-6-(dimethylamino)-1-[[4-[(5-fluoro-1-isobutyl-indol-2-yl)methyl]-3-oxo-pyrazin-2-yl]carbamoyl]-6-oxo-hex-4-enyl]N,Ndimethylcarbamate] | < 0.5 µM |
| [2H]C([2H])(C/C=C/C(=O)N(C)C)C(OC(=O)N(C)C)C(=O)Nc1cccn(Cc2cc3cc(F)cc(OCc4ccc(F)cc4F)c3n2C(=O)OC(C)(C)C)c1=O (stereo not drawn) [Compound 303] | 5 to 100 µM |
| COC(=O)N[C@@H](CC/C=C/C(=O)N(C)C)C(=O)Nc1cncn(Cc2nc3cc(F)cc(CCC(F)(F)F)c3[nH]2)c1=O [Compound 103, methyl N-[(E,1S)-6-(dimethylamino)-1-[[1-[[5-fluoro-7-(3,3,3-trifluoropropyl)-1H-benzimidazol-2-yl]methyl]-6-oxo-pyrimidin-5-yl]carbamoyl]-6-oxo-hex-4-enyl]carbamate] | < 0.5 µM |
| COC(=O)N[C@@H](CC/C=C/C(=O)N(C)C)C(=O)Nc1cccn(Cc2cc3c(F)cnc(C=C(C)C)c3[nH]2)c1=O [Compound 501] | < 0.5 µM |

The remaining lines, values ahead:

| IC50 | SMILES |
| --- | --- |
| < 0.5 µM | COC(=O)N[C@@H](CC/C=C/C(=O)N(C)C)C(=O)Nc1cccn(Cc2nc3c(CC(C)C)c(F)cnc3[nH]2)c1=O [Compound 525] |
| 0.5 to 5 µM | CN(C)C(=O)/C=C/CC[C@H](OC(=O)N(C)C)C(=O)Nc1cccn(Cc2nc3cc(F)ccc3n2Cc2ccc(F)cc2)c1=O [Compound 207] |
| 0.5 to 5 µM | CN(C)C(=O)/C=C/CC[C@H](OC(=O)N(C)C)C(=O)Nc1cccn(Cc2nc3ccc(F)cc3n2Cc2ccc(F)cc2)c1=O [Compound 208] |
| 0.5 to 5 µM | [2H]C([2H])(C/C=C/C(=O)N(C)C)C(OC(=O)N(C)C)C(=O)Nc1cccn(Cc2cc3cccc(CC(C)C)c3n2C(=O)OC(C)(C)C)c1=O (stereo not drawn) [Compound 247] |
| 5 to 100 µM | COC(=O)N[C@@H](CC/C=C/C(=O)N(C)C)C(=O)Nc1cncn(Cc2nc3cc(F)ccc3n2C)c1=O [Compound 174, methyl N-[(E,1S)-6-(dimethylamino)-1-[[1-[(5-fluoro-1-methyl-benzimidazol-2-yl)methyl]-6-oxo-pyrimidin-5-yl]carbamoyl]-6-oxo-hex-4-enyl]carbamate] |
| < 0.5 µM | COC(=O)N[C@@H](CC/C=C/C(=O)N(C)C)C(=O)Nc1cccn(Cc2cc3ncc(F)c(CC4CCC4)c3[nH]2)c1=O [Compound 585] |
| 0.5 to 5 µM | CN(C)C(=O)/C=C/CC[C@H](OC(=O)N(C)C)C(=O)Nc1cccn(Cc2nc3ccc(F)cc3n2Cc2ccccc2)c1=O [Compound 202, [(E,1S)-1-[[1-[(1-benzyl-6-fluoro-benzimidazol-2-yl)methyl]-2-oxo-3-pyridyl]carbamoyl]-6-(dimethylamino)-6-oxo-hex-4-enyl]N,N-dimethylcarbamate] |
| < 0.5 µM | COC(=O)N[C@@H](CC/C=C/C(=O)N(C)C)C(=O)Nc1cc(F)c(C)n(Cc2nc3c(F)cnc(CC(C)C)c3[nH]2)c1=O [Compound 583] |
| 0.5 to 5 µM | [2H]C([2H])(C/C=C/C(=O)N(C)C)C(OC(=O)N(C)C)C(=O)Nc1cccn(Cc2nc3cc(F)ccc3[nH]2)c1=O (stereo not drawn) [Compound 54] |
| 0.5 to 5 µM | [2H]C([2H])(C/C=C/C(=O)N(C)C)C(OC(=O)N(C)C)C(=O)Nc1cccn(Cc2nc3cc(F)ccc3[nH]2)c1=O (stereo not drawn) [Compound 55] |
| < 0.5 µM | CN(C)C(=O)/C=C/CC[C@H](OC(=O)N(C)C)C(=O)Nc1ccnn(Cc2nc3cc(F)cc(CC(C)(C)C)c3[nH]2)c1=O [Compound 85, [(E,1S)-6-(dimethylamino)-1-[[2-[[7-(2,2-dimethylpropyl)-5-fluoro-1H-benzimidazol-2-yl]methyl]-3-oxo-pyridazin-4-yl]carbamoyl]-6-oxo-hex-4-enyl]N,N-dimethylcarbamate] |

Same assay, conditions: fluorescence of dansyl cadaverine cross-linked into N,N-dimethylated casein; 8 point titration; listed as 101

| SMILES | IC50 |
| --- | --- |
| COCc1ccc(NC(=O)[C@H](CC/C=C/C(=O)N(C)C)NC(=O)OC)c(=O)n1Cc1nc2c(F)cnc(CC(C)C)c2[nH]1 [Compound 599] | 0.5 to 5 µM |

Source: patent US11548892B1, “Transglutaminase 2 (TG2) inhibitors” (Sitari Pharma, Inc., priority 2018, dated 2023)
